Results as given in patent US9833497B2, “Human originated EGF domain proteins and use of the same” (CHENGDU SOURCEBIO LIMITED-LIABILITY COMPANY, priority 2013, dated 2017).

Assays:
Assay type in all cases: cell-based
[1] = test system: E. coli BL21; test: MIC against Gram-negative bacteria: E. coli BL21; settings: 5×10^5 CFU/mL; for MIC: E. coli BL21, 10 h cultivation at 37° C.; for MIC against E. coli BL21: 96-well plate, 37° C., 10 h
Method in brief: (§1)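 MIC = lowest concentration of recombinant protein showing no growth. Test proteins: purified human-derived EGF domain proteins, two-fold dilution series, three wells per concentration; inoculum 5×10^5 CFU/mL in LB; incubation 37° C with shaking at 175 rpm.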

[2] = test system: Klebsiella pneumonia; test: MIC against Gram-negative bacteria: Klebsiella pneumonia; settings: 5×10^5 CFU/mL; for MIC: K. pneumonia, 10 h cultivation at 37° C.; for MIC against K. pneumonia: 96-well plate, 37° C., 10 h
Method in brief: as §1

[3] = test system: Pseudomonas aeruginosa; test: MIC against Gram-negative bacteria: Pseudomonas aeruginosa; settings: 5×10^5 CFU/mL; for MIC: P. aeruginosa, 10 h cultivation at 37° C.; for MIC against P. aeruginosa: 96-well plate, 37° C., 10 h
Method in brief: as §1

[4] = test system: Moraxella catarrhalis; test: MIC against Gram-negative bacteria: Moraxella catarrhalis; settings: 5×10^5 CFU/mL; for MIC: M. catarrhalis, 10 h cultivation at 37° C.; for MIC against M. catarrhalis: 96-well plate, 37° C., 10 h
Method in brief: as §1

[5] = test system: Aeromonas hydrophila; test: MIC against Gram-negative bacteria: Aeromonas hydrophila; settings: 5×10^5 CFU/mL; for MIC: A. hydrophila, 10 h cultivation at 37° C.; for MIC against A. hydrophila: 96-well plate, 37° C., 10 h
Method in brief: as §1

[6] = test system: Enterobacter cloacae; test: MIC against Gram-negative bacteria: Enterobacter cloacae; settings: 5×10^5 CFU/mL; for MIC: E. cloacae, 10 h cultivation at 37° C.; for MIC against E. cloacae: 96-well plate, 37° C., 10 h
Method in brief: as §1

[7] = test system: Proteus mirabilis; test: MIC against Gram-negative bacteria: Proteus mirabilis; settings: 5×10^5 CFU/mL; for MIC: P. mirabilis, 10 h cultivation at 37° C.; for MIC against P. mirabilis: 96-well plate, 37° C., 10 h
Method in brief: as §1

[8] = test system: Proteus vulgaris; test: MIC against Gram-negative bacteria: Proteus vulgaris; settings: 5×10^5 CFU/mL; for MIC: P. vulgaris, 10 h cultivation at 37° C.; for MIC against P. vulgaris: 96-well plate, 37° C., 10 h
Method in brief: as §1

[9] = test system: E. coli DH5α; test: Antibacterial activity: MIC and growth curve against E. coli DH5α in 96-well plate; settings: minimal inhibitory concentration against E. coli DH5α; 96-well plate, 5×10^5 CFU/mL, 37° C., judged after 8 h
Method in brief: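 Log-phase DH5α (OD600 about 0.5, 37° C, 185 rpm in LB) was pelleted, resuspended in fresh LB and seeded at 5×10^5 CFU/mL with recombinant protein at 50, 25 and 12.5 μg/mL (two-fold series), in triplicate. Plates were shaken at 175 rpm, 37° C, and OD600 was read every 30 min. MIC was the lowest concentration with no growth.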

[10] = test system: Citrobacter diversus; test: MIC against Gram-negative bacteria: Citrobacter diversus; settings: 5×10^5 CFU/mL; for MIC: C. diversus, 10 h cultivation at 37° C.; for MIC against C. diversus: 96-well plate, 37° C., 10 h
Method in brief: as §1

[11] = test system: Serratia marcescens; test: MIC against Gram-negative bacteria: Serratia marcescens; settings: 5×10^5 CFU/mL; for MIC: S. marcescens, 10 h cultivation at 37° C.; for MIC against S. marcescens: 96-well plate, 37° C., 10 h
Method in brief: as §1

Substance	MIC [1] [µg/mL]	MIC [2] [µg/mL]	MIC [3] [µg/mL]	MIC [4] [µg/mL]	MIC [5] [µg/mL]	MIC [6] [µg/mL]	MIC [7] [µg/mL]	MIC [8] [µg/mL]	MIC [9] [µg/mL]	MIC [10] [µg/mL]	MIC against E. coli BL21 [1] [µg/mL]	MIC against K. pneumonia [2] [µg/mL]	MIC against P. aeruginosa [3] [µg/mL]	MIC against M. catarrhalis [4] [µg/mL]	MIC against A. hydrophila [5] [µg/mL]	MIC against E. cloacae [6] [µg/mL]	MIC against P. mirabilis [7] [µg/mL]	MIC against P. vulgaris [8] [µg/mL]	MIC against C. diversus [10] [µg/mL]	MIC against S. marcescens [11] [µg/mL]	other results
PRT438 (DIDECALGRHTCHAGQDCDNTIGSYRCVVRCGSGFRRTSDGLSCQ; listed as Homo sapiens)	12.5	12.5	50	12.5	12.5	50	50	12.5	25	50											MIC [11]: 50 µg/mL
PRT439 (DINECQESSPCHQRCFNAIGSFHCGCEPGYQLKGRKCM; listed as Homo sapiens)	12.5	50	25	50	12.5	25	12.5	50	25	25											MIC [11]: 12.5 µg/mL
PRT440 (DVNECRQNVCRPDQHCKNTRGGYKCIDLCPNGMTKAENGTCI; listed as Homo sapiens)	12.5	12.5	50	12.5	12.5	50	25	50	50	50											MIC [11]: 25 µg/mL
PRT442 (DINECEQVPKPCAHQCSNTPGSFKCICPPGQHLLGDGKSCA; listed as Homo sapiens)	50	12.5	25	12.5	50	25	12.5	12.5	12.5	25											MIC [11]: 25 µg/mL
PRT443 (DIDECENTDACQHECKNTFGSYQCICPPGYQLTHNGKTCQ; listed as Homo sapiens)	25	12.5	12.5	12.5	12.5	12.5	25	12.5	12.5	25											MIC [11]: 50 µg/mL
PRT444 (GISECSSQPCQNGGTCVEGVNQYRCICPPGRTGNRCQ; listed as Homo sapiens)									25		12.5	50	25	50	50	12.5	12.5	50	12.5	12.5	
PRT445 (DVNECELYGQEGRPRLCMHACVNTPGSYRCTCPGGYRTLADGKSCE; listed as Homo sapiens)									50		12.5	25	50	12.5	25	12.5	12.5	12.5	50	12.5	
PRT446 (DVDECVGLQPVCPQGTTCINTGGSFQCVSPECPEGSGNVSYVKTSPFQCE; listed as Homo sapiens)									12.5		12.5	50	12.5	50	50	12.5	25	12.5	12.5	25	
PRT447 (DVDECAQALHDRRPSQDCHNLSGSYQCTCPDGYRKIGPE; listed as Homo sapiens)									50		25	25	12.5	25	25	50	50	12.5	12.5	50	
PRT448 (SFRCQCEPGFQLGPNNRSCVDVNE; listed as Homo sapiens)									12.5		50	50	100	12.5	50	12.5	25	50	25	12.5	
PRT449 (FLCRCHQGYELHRDGFSCSDIDE; listed as Homo sapiens)									50		12.5	12.5	50	25	25	50	50	12.5	12.5	50	
PRT450 (KCLCPLGFLLANDSKTCEDIDE; listed as Homo sapiens)									12.5		12.5	50	12.5	50	50	12.5	12.5	50	12.5	12.5	
PRT451 (SFYCSCRPGYKLMSDKRTCVDIDE; listed as Homo sapiens)									25		50	12.5	25	50	50	25	12.5	50	12.5	12.5	
PRT452 (DIDECTEMPFVCSQKCENVIGSYICKCAPGYLREPDGKTC; listed as Homo sapiens)									12.5		12.5	12.5	12.5	25	12.5	50	12.5	25	50	50	
PRT453 (DINECEQFGTCPQHCRNTKGSYECVCADGFT; listed as Homo sapiens)									25		12.5	50	25	50	12.5	25	25	12.5	25	25	
PRT454 (LPDQCTPNPCDRKGTQACQDLMGNFFCLCKAGWGGRLCD; listed as Homo sapiens)									50		12.5	50	25	50	12.5	25	12.5	50	25	12.5	
